Assay results from patent publication US12065436B2, “Cardiac sarcomere inhibitors” (Cytokinetics, Inc., priority 2018, dated 2024).
pIC50: −log10 of the molar value.

Biological target: bovine cardiac myofibrils (full-length cardiac myosin ATPase in the native sarcomere) (Bos taurus (Bovine), UniProt Q9BE39)
Assay: Skinned bovine cardiac myofibril ATPase assay (PK/LDH-coupled)
Format: biochemical
Conditions: Ca2+ activating to 75% of maximal rate; for CDMF75 IC15: concentration giving 15% inhibition; for pIC50: read-out: CDMF75 IC50
In short: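 Inhibition of steady-state ATPase read at 340 nm through a PK/LDH-coupled NADH system (0.5 mM NADH, 1.5 mM PEP). Detergent-skinned bovine cardiac myofibrils, 1 mg/mL, were tested at pH 6.8 in PIPES/MgCl2 with 50 μM ATP and calcium adjusted to give pCa50 or pCa75 activation.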

Chain of bovine cardiac myofibrils (full-length cardiac myosin ATPase in the native sarcomere) (Q9BE39 whole entry): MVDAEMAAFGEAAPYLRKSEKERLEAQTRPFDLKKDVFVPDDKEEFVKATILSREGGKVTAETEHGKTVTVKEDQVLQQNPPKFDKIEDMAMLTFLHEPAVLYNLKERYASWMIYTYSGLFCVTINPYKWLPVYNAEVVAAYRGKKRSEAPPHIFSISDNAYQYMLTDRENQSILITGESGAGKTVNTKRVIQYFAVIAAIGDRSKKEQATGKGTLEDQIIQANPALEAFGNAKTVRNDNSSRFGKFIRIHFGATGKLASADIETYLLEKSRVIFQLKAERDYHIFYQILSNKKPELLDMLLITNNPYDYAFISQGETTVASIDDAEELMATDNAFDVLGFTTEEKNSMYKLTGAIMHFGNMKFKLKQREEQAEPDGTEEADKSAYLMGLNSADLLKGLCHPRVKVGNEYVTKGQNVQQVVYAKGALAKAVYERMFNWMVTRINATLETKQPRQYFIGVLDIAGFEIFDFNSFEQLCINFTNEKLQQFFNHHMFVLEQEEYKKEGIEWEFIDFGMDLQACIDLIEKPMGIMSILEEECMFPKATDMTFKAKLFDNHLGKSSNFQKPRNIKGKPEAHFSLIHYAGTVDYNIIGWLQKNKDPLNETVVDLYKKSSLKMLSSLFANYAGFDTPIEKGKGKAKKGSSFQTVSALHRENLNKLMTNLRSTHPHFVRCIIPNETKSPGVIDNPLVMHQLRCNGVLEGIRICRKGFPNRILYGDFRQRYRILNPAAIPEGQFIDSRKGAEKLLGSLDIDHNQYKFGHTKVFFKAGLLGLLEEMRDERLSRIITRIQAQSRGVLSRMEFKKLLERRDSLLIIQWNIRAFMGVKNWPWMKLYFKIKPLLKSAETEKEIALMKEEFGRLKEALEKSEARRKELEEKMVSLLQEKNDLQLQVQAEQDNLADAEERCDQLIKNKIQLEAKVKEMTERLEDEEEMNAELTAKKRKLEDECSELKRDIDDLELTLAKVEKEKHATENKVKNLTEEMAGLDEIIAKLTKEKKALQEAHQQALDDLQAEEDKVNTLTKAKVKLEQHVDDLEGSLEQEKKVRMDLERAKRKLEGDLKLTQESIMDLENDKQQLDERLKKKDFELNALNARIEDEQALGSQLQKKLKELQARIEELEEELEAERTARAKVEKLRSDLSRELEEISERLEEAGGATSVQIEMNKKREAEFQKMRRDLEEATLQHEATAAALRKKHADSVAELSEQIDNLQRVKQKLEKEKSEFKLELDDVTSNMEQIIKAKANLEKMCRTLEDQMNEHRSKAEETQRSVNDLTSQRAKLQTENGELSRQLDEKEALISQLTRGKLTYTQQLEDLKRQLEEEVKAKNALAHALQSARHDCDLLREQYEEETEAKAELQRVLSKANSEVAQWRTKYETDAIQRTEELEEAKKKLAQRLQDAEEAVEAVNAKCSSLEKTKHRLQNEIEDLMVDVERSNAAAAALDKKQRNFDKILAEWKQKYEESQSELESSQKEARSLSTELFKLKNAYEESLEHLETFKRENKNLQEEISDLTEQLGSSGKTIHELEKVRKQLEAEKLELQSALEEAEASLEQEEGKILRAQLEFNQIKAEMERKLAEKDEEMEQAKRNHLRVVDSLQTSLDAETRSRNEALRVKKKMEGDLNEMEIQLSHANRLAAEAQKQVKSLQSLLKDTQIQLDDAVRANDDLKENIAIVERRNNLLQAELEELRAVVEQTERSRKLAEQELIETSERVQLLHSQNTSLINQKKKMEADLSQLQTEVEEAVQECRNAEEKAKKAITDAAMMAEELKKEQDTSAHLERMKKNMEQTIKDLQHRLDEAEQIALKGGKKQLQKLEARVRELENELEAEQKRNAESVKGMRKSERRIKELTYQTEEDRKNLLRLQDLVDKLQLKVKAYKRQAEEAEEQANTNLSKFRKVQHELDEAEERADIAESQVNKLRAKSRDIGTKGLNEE
Chain of bovine cardiac myofibrils (full-length cardiac myosin ATPase in the native sarcomere) (P85100 whole entry partner): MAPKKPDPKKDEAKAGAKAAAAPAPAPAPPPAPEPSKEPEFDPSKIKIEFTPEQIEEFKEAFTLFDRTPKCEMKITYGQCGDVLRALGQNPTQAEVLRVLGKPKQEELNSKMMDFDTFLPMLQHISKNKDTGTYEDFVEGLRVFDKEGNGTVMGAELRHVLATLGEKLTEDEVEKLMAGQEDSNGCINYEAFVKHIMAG
Chain of bovine cardiac myofibrils (full-length cardiac myosin ATPase in the native sarcomere) (Q3SZE5 whole entry partner): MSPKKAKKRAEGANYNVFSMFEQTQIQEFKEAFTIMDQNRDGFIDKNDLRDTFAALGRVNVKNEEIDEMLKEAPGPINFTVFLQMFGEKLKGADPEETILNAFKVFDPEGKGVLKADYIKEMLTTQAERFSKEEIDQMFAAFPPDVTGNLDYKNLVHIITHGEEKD

| SMILES | CDMF75 IC15 [µM] | pIC50 |
| --- | --- | --- |
| [2H]C([2H])([2H])c1nc(-c2ccc3c(c2)CC[C@H]3NC(=O)C(F)F)no1 [Compound 442, (R)-2,2-difluoro-N-(5-(5-(methyl-d3)-1,2,4-oxadiazol-3-yl)-2,3-dihydro-1H-inden-1-yl)acetamide] | 2.5 | 4.90 |
| CCc1nc(-c2ccc3c(c2)CC[C@H]3NC(=O)[C@H]2CCNC(=O)C2)no1 [Compound 355, (S)-N-((R)-5-(5-ethyl-1,2,4-oxadiazol-3-yl)-2,3-dihydro-1H-inden-1-yl)-2-oxopiperidine-4-carboxamide] | 2.9 | 4.96 |
| O=C(N[C@@H]1CCc2cc(-c3noc(C(F)F)n3)ccc21)C1CC1 [Compound 310, (R)-N-(5-(5-(difluoromethyl)-1,2,4-oxadiazol-3-yl)-2,3-dihydro-1H-inden-1-yl)cyclopropanecarboxamide] | 2.9 | 4.95 |
| CNC(=O)N[C@@H]1CCc2cc(-c3noc(C(F)F)n3)ccc21 [Compound 295, (R)-1-(5-(5-(difluoromethyl)-1,2,4-oxadiazol-3-yl)-2,3-dihydro-1H-inden-1-yl)-3-methylurea] | 4.9 | < 4.41 |
| CCc1nc(-c2ccc3c(c2)CC[C@H]3NC(=O)OCC2CN(C(=O)OC)C2)no1 [Compound 361, methyl (R)-3-((((5-(5-ethyl-1,2,4-oxadiazol-3-yl)-2,3-dihydro-1H-inden-1-yl)carbamoyl)oxy)methyl)azetidine-1-carboxylate] | 23.7 | < 4.41 |
| Cc1nc(-c2ccc3c(c2)OC[C@H]3NC(=O)c2cc(CO)ccn2)no1 [Compound 718, (S)-4-(hydroxymethyl)-N-(6-(5-methyl-1,2,4-oxadiazol-3-yl)-2,3-dihydrobenzofuran-3-yl)picolinamide] | 1.1 | 5.28 |
| Cc1cc(C(=O)NC2CCc3cc(-c4nc(C)no4)ccc32)ccn1 (stereo not shown) [Compound 130, 2-methyl-N-(5-(3-methyl-1,2,4-oxadiazol-5-yl)-2,3-dihydro-1H-inden-1-yl)isonicotinamide] | 2.5 | 4.99 |
| Cn1cc(C(=O)NC2COc3cc(-c4noc(C(F)F)n4)ccc32)cn1 (stereo not shown) [Compound 219, N-(6-(5-(difluoromethyl)-1,2,4-oxadiazol-3-yl)-2,3-dihydrobenzofuran-3-yl)-1-methyl-1H-pyrazole-4-carboxamide] | 0.7 | 5.60 |
| Cc1cc(C(=O)NC2CCc3cc(-c4coc(C)n4)ccc32)ccn1 (stereo not shown) [Compound 145, 2-methyl-N-(5-(2-methyloxazol-4-yl)-2,3-dihydro-1H-inden-1-yl)isonicotinamide] | 39.2 | < 4.41 |
| Cc1nc(-c2ccc3c(c2)OC[C@H]3NC(=O)c2ccnc(CO)c2)no1 [Compound 719, (S)-2-(hydroxymethyl)-N-(6-(5-methyl-1,2,4-oxadiazol-3-yl)-2,3-dihydrobenzofuran-3-yl)isonicotinamide] | 0.8 | 5.43 |
| Cn1cc(C(=O)NC2COc3cc(-c4noc(C5CC5)n4)ccc32)cn1 (stereo not shown) [Compound 237, N-(6-(5-cyclopropyl-1,2,4-oxadiazol-3-yl)-2,3-dihydrobenzofuran-3-yl)-1-methyl-1H-pyrazole-4-carboxamide] | 1.1 | 5.44 |
| COCc1nc(-c2ccc3c(c2)OC[C@H]3NC(=O)c2cccc([C@@H](C)O)c2)no1 [Compound 737, 3-((R)-1-hydroxyethyl)-N-((S)-6-(5-(methoxymethyl)-1,2,4-oxadiazol-3-yl)-2,3-dihydrobenzofuran-3-yl)benzamide] | 2.4 | 4.83 |
| Cc1ncc(C(=O)N[C@@H]2COc3cc(-c4noc(C5(C)CC5)n4)ccc32)o1 [Compound 466, (S)-2-methyl-N-(6-(5-(1-methylcyclopropyl)-1,2,4-oxadiazol-3-yl)-2,3-dihydrobenzofuran-3-yl)oxazole-5-carboxamide] | 0.8 | 5.54 |
| O=C1CC[C@@H](C(=O)N[C@@H]2CCc3cc(-c4noc(C5CC5)n4)ccc32)N1 [Compound 338, (S)-N-((R)-5-(5-cyclopropyl-1,2,4-oxadiazol-3-yl)-2,3-dihydro-1H-inden-1-yl)-5-oxopyrrolidine-2-carboxamide] | 39.2 | < 4.41 |
| Cc1cc(C(=O)NC2CCc3cc(-c4cc(C(F)F)on4)ccc32)ccn1 (stereo not shown) [Compound 168, N-(5-(5-(difluoromethyl)isoxazol-3-yl)-2,3-dihydro-1H-inden-1-yl)-2-methylisonicotinamide] | 1.1 | 5.42 |
| COCCn1cc(C(=O)N[C@@H]2CCc3cc(-c4noc(C5CCC5)n4)ccc32)cn1 [Compound 513, (R)-N-(5-(5-cyclobutyl-1,2,4-oxadiazol-3-yl)-2,3-dihydro-1H-inden-1-yl)-1-(2-methoxyethyl)-1H-pyrazole-4-carboxamide] | 2.2 | 4.96 |
| Cc1nc(-c2ccc3c(c2)OCC3NC(=O)c2oc(C)nc2C)no1 (stereo not shown) [Compound 159, 2,4-dimethyl-N-(6-(5-methyl-1,2,4-oxadiazol-3-yl)-2,3-dihydrobenzofuran-3-yl)oxazole-5-carboxamide] | 1.9 | 5.08 |
| CCc1nc(-c2ccc3c(c2)CC[C@H]3NC(=O)OCC2CC2)no1 [Compound 323, cyclopropylmethyl (R)-(5-(5-ethyl-1,2,4-oxadiazol-3-yl)-2,3-dihydro-1H-inden-1-yl)carbamate] | 0.3 | 6.05 |

The remaining lines, values ahead:

| CDMF75 IC15 [µM] | pIC50 | SMILES |
| --- | --- | --- |
| 13.1 | < 4.41 | Cc1nc(-c2ccc3c(c2)CCC3NC(=O)Nc2ccncn2)no1 (stereo not shown) [Compound 98, 1-(5-(5-methyl-1,2,4-oxadiazol-3-yl)-2,3-dihydro-1H-inden-1-yl)-3-(pyrimidin-4-yl)urea] |
| 39.2 | < 4.41 | Cc1cc(-c2ccc3c(c2)CC[C@H]3NC(=O)c2ccnn2C)cnn1 [Compound 384, (R)-1-methyl-N-(5-(6-methylpyridazin-4-yl)-2,3-dihydro-1H-inden-1-yl)-1H-pyrazole-5-carboxamide] |
| 2.5 | 5.07 | CCn1nccc1C(=O)NC1CCc2cc(-c3noc(C)n3)ccc21 (stereo not shown) [Compound 56, 1-ethyl-N-(5-(5-methyl-1,2,4-oxadiazol-3-yl)-2,3-dihydro-1H-inden-1-yl)-1H-pyrazole-5-carboxamide] |
| 1.1 | 5.40 | CCOC(=O)C(C)c1nc(-c2ccc3c(c2)CC[C@H]3NC(=O)c2ccnn2C)no1 (stereo partly drawn) [Compound 492, ethyl 2-(3-((R)-1-(1-methyl-1H-pyrazole-5-carboxamido)-2,3-dihydro-1H-inden-5-yl)-1,2,4-oxadiazol-5-yl)propanoate] |
| 0.4 | 5.89 | CCc1nc(-c2ccc3c(c2)CC[C@H]3NC(=O)c2cnco2)no1 [Compound 583, (R)-N-(5-(5-ethyl-1,2,4-oxadiazol-3-yl)-2,3-dihydro-1H-inden-1-yl)oxazole-5-carboxamide] |
| 0.7 | 5.60 | Cc1nc(-c2ccc3c(c2)CCC3NC(=O)c2oncc2C)no1 (stereo not shown) [Compound 88, 4-methyl-N-(5-(5-methyl-1,2,4-oxadiazol-3-yl)-2,3-dihydro-1H-inden-1-yl)isoxazole-5-carboxamide] |
| 1.2 | 5.30 | O=C(N[C@@H]1CCc2cc(-c3noc(C4CC4)n3)ccc21)c1cnn(CCO)c1 [Compound 521, (R)-N-(5-(5-cyclopropyl-1,2,4-oxadiazol-3-yl)-2,3-dihydro-1H-inden-1-yl)-1-(2-hydroxyethyl)-1H-pyrazole-4-carboxamide] |
| 0.8 | 5.42 | COCc1nc(-c2ccc3c(c2)CC[C@H]3NC(=O)c2cccc([C@H](C)O)c2)no1 [Compound 728, 3-((S)-1-hydroxyethyl)-N-((R)-5-(5-(methoxymethyl)-1,2,4-oxadiazol-3-yl)-2,3-dihydro-1H-inden-1-yl)benzamide] |
| 0.4 | 5.92 | CCc1nc(-c2ccc3c(c2)CC[C@H]3NC(=O)c2ccnc(C(F)F)c2)no1 [Compound 578, (R)-2-(difluoromethyl)-N-(5-(5-ethyl-1,2,4-oxadiazol-3-yl)-2,3-dihydro-1H-inden-1-yl)isonicotinamide] |
| 1.0 | 5.51 | Cc1nc(-c2ccc3c(c2)OCC3NC(=O)c2ccnn2C)no1 (stereo not shown) [Compound 121, 1-methyl-N-(6-(5-methyl-1,2,4-oxadiazol-3-yl)-2,3-dihydrobenzofuran-3-yl)-1H-pyrazole-5-carboxamide] |
| 2.7 | 5.00 | Cc1cncc(-c2ccc3c(c2)CC[C@H]3NC(=O)c2ccnn2C)n1 [Compound 382, (R)-1-methyl-N-(5-(6-methylpyrazin-2-yl)-2,3-dihydro-1H-inden-1-yl)-1H-pyrazole-5-carboxamide] |
| 2.8 | 5.05 | Cc1nc(-c2ccc3c(c2)CCC3NC(=O)c2cnn3c2CCC3)no1 (stereo not shown) [Compound 57, N-(5-(5-methyl-1,2,4-oxadiazol-3-yl)-2,3-dihydro-1H-inden-1-yl)-5,6-dihydro-4H-pyrrolo[1,2-b]pyrazole-3-carboxamide] |
| 1.6 | 5.21 | CCc1nc(-c2ccc3c(c2)CC[C@H]3NC(=O)c2nnn(C)c2C)no1 [Compound 621, (R)-N-(5-(5-ethyl-1,2,4-oxadiazol-3-yl)-2,3-dihydro-1H-inden-1-yl)-1,5-dimethyl-1H-1,2,3-triazole-4-carboxamide] |
| 0.8 | 5.55 | Cc1cc(C(=O)N[C@@H]2CCc3cc(-c4noc(C)n4)ccc32)n(C)n1 [Compound 106, (R)-1,3-dimethyl-N-(5-(5-methyl-1,2,4-oxadiazol-3-yl)-2,3-dihydro-1H-inden-1-yl)-1H-pyrazole-5-carboxamide] |
